According to US20140248212A1, “NON-IMMUNOGENIC POSITRON EMISSION TOMOGRAPHY REPORTER GENE SYSTEMS” (THE REGENTS OF THE UNIVERSITY OF CALIFORNIA, priority 2011, published 2014):

What was measured:
[1] = Biodistribution of PET reporter probes in mice (microPET/CT); assay type: in vivo, C57/BL6 mice
Experimental: To identify candidate PRPs, eight nucleoside analogs (FIG. 7A) were synthesized that were amenable to ^18F labeling (the first criterion for PRPs). To identify PRP candidates with rapid clearance from normal tissues and low overall background (second criterion for PRGs), biodistribution studies in mice were performed. It was observed that natural (D) nucleosides had higher background than non-natural (L) nucleoside analogs. […] The next step was to identify a human nucleoside kinase that phosphorylates L-[^18F]FMAU and L-[^18F]FEAU, and can be converted into a new PRG that matches four criteria:
Initially, a group of nucleoside analogs amenable to fluorine-18 labeling were identified. These PET tracers, 5 of which were novel, were then screened to determine their biodistribution in C57/BL6 mice (n=3 for each PET tracer) through dynamic microPET scans. […] Rational design is utilized to introduce mutations into human nucleoside kinase thymidine kinase 2 (TK2) to improve the affinity of the kinase for the top candidate probe. The sensitivity and specificity of the novel PET reporter probe/gene pair was then determined in vitro and in vivo using a murine cancer model.
(§1) Animal studies were approved and carried out according to specific guidelines. C57/BL6 mice were injected with the indicated probe and underwent micro-PET/CT analyses at 1- and 3-h post probe injection (Inveon, Siemens Medical Solutions USA Inc.; microCAT; Imtek Inc.). For tumor imaging studies, SCID mice were injected subcutaneously on day −7 in the right and left flanks with 1×10^6 L1210-PRG-expressing cells in 50% v/v phosphate-buffered saline and 50% v/v Matrigel™ (BD Biosciences). For imaging experiments, mice were kept warm and under gas anesthesia (2% v/v isoflurane) and were injected intravenously with 200 μCi of ^18F-labeled probes. A 3-h interval was allowed between probe administration and microPET/CT scanning Static microPET images were acquired for 600 s. Image data were evaluated in three-dimensional histograms and reconstructed with a zoom factor of 2.1 using three-dimensional ordered set expectation maximization (OSEM) with 2 iterations followed by MAP (maximum a posteriori) reconstruction with 18 iterations (beta=0.1). Images were analyzed using OsiriX Imaging Software Version 3.8.

[2] = tested on: TK2-L109F-expressing L1210 cells; assay: L-18F-FMAU uptake assay, transduced L1210 cells (TK2-L109F); assay type: cell-based, murine; details: in the presence of 5 μM D-dT
Experimental: (§2) The L1210 cell line (see, e.g. Jordheim, L. P., et al. (2004) Clin. Cancer Res. 10, 5614-5621) was a gift. Cells were cultured at 5% v/v CO2 and 37° C. in RPMI supplemented with 5% v/v FCS. Murine stem cell virus (pMSCV)-based helper-free retroviruses encoding the TK2 mutants (or sr39tk), an internal ribosomal entry site, and the yellow fluorescent protein (YFP) were produced by transient co-transfection of the amphotrophic retrovirus packaging cell line Phoenix (American Type Culture Collection, SD 3443) (see, e.g. Hawley, R. G., et al. (1994) Gene. Ther. 1, 136-138). L1210 cells underwent spinfection with the pMSCV-TK2 mutants-internal ribosomal entry site-YFP retrovirus with 2 μg/ml Polybrene (1000×g, 120 min, 37° C.). L1210 cells expressing various PRGs, (L1210-PRG) were FACS-sorted to ensure that each population had equivalent levels of PRG expression.
(§3) L1210 cells transduced with the indicated PET reporter genes (L1210-PRG) were seeded at a density of 500,000 cells/well in 24-well plates. 5 μCi of L-^18F-FMAU were added to the L1210-PRG cells simultaneously with the indicated amounts of D-thymidine (D-dT) at a final volume of 1 ml/well. After 1 h at 37° C., cells were harvested and washed four times with ice-cold PBS. Radioactivity was measured using a gamma counter.

[3] = tested on: TK2-N93D/L109F-expressing L1210 cells; assay: L-18F-FMAU uptake assay, transduced L1210 cells (TK2-N93D/L109F); assay type: cell-based, murine
Experimental: as §2, §3

[4] = tested on: L1210 tumors expressing TK2-N93D; assay: microPET/CT of SCID mice bearing L1210-PRG tumors (TK2-N93D); assay type: in vivo; details: for in vivo L-18F-FMAU uptake compared with WT TK2-expressing tumors: 3 h post-injection
Text: To compare TK2, TK2-N93D and HSV1-sr39tk in vivo, PRG-expressing L1210 cells were implanted subcutaneously in SCID mice that were then scanned with L-[^18F]FMAU (FIG. 10A) and [^18F]FHBG (FIG. 10C) on consecutive days. […] Signals obtained with sr39tk were slightly higher than those obtained with the human TK2-N93D PRG (the difference was not statistically significant). […] L-[^18F]FMAU accumulation in TK2-N93D transduced tumors was ˜20 times higher than the accumulation in tumors transduced with the control (eYFP only) vector. While this ratio is higher than the 6.67 ratio reported for WT TK2 as a PRG with D-[^18F]FEAU as the PRP (see, e.g. Ponomarev, V., et al. J Nucl Med 48:819-826, 2007), the HSV1-sr39tk/[^18F]FHBG combination still outperforms the TK2-N93D/L-[^18F]FMAU combination by ˜2-fold. The significance of the 2-fold difference for the sensitivity of the new TK2-N93D PRG can be further investigated in the animal models discussed below (see, e.g. Gerth, M. L., et al. Biochem Biophys Res Commun 354:802-807, 2007; Liu, L., et al. Nucleic Acids Res 37:4472-4481, 2009; Iyidogan, P., et al. Biochemistry 47:4711-4720, 2008; Lutz, S., et al. Chimia (Aarau) 63:737-744 2009).
as §1

Baf-3 cells = assay: Test of mutant htk2 reporter genes in Baf-3 cells; assay type: cell-based
Text: The sensitivity of the described mutant htk2 imaging reporter genes can be evaluated through cell culture assays and PET imaging in mouse tumor models. […] Further tests regarding the effect of expressing these reporter genes on various cells can be used to determine other potential targets. […] Several enhanced htk2 mutant reporter genes have been designed and tested. Though the examples herein describe different probes and investigate the L probes mainly in mice, other mammals and in particular, humans are also within the scope of the invention. Silico models can be used to derive additional enhanced mutants from human htk2.

Cc1cn([C@H]2O[C@@H](CO)[C@H](O)[C@H]2[18F])c(=O)[nH]c1=O [L-^18F-FMAU, 2′-deoxy-2′-^18F-5-methyl-1-β-L-arabinofuranosyluracil]
accumulation in the liver ([1]; 1-h post injection (data not shown)): accumulates in the liver | accumulation in the liver ([1]; 3-h time point): neither probe showed any accumulation | accumulation in the gallbladder ([1]; 3 h after administration): 1.68±0.46 % injected dose/g | retention in the thoracic cavity ([1]; 3 h after administration): very low retention | signals in the GI tract ([1]; 3 h after administration): only detected in the lower GI tract | overall background (biodistribution) ([1]; candidate 18F nucleoside analog probes in mice, FIG. 7B): lowest overall background | non-specific GI signals ([1]; increasing uptake time from 1 to 3 hours): almost completely eliminated | GI activity compared with 18F-FHBG-injected mice ([1]; mice): significantly less intense | L-18F-FMAU uptake as percentage of the corresponding uptake for TK2-N93D/L109F [2]: 31% | decrease of L-18F-FMAU uptake [2]: 37% | in vitro uptake of 18F-L-FMAU compared to TK2-N0 ([3]; TK2-N5 (TK2-N93D/L109F)): two-fold increase | inhibition of uptake by thymidine compared to TK2-N0 ([3]; TK2-N5 (TK2-N93D/L109F)): less resistance to inhibition by thymidine | L-18F-FMAU uptake, higher than that of TK2-L109F cells ([3]; absence of D-dT): ~4 times | L-18F-FMAU uptake, higher than that of TK2-N93D cells ([3]; absence of D-dT): 1.5 times | decrease of L-18F-FMAU uptake ([3]; in the presence of 5 μM D-dT): 47% | in vivo L-18F-FMAU uptake compared with WT TK2-expressing tumors [4]: nearly double | in vivo L-18F-FMAU uptake compared with WT TK2-expressing tumors ([4]; listed as 18F-L-FMAU): two-fold increase | in vivo L-18F-FMAU uptake compared with WT TK2-expressing tumors ([4]; listed as L-[^18F]FMAU): improved accumulation | L-[18F]FMAU accumulation relative to tumors transduced with control (eYFP only) vector ([4]; 3 hrs post-injection): ~20 times | test of reporter system with probe (Baf-3 cells): successfully tested
